Data published in PubChem BioAssay AID248 (DTP/NCI, 2004).
Values joined by “and” are separate entries in the source; they are usually repeats but may differ in a detail not shown here. Equal values may be shown once. Inconclusive results and toxic doses are left out. Cut-off read from the data, not from the text of the source: active = T/C of 150% or more; inactive = T/C below 125%.

System: L1210 leukemia ip in BDF1 mice, survival T/C
Test: NCI In Vivo Anticancer Drug Screen. Data for tumor model L1210 Leukemia (intraperitoneal) in B6D2F1 (BDF1) mice
Details: higher = longer survival
Summary of the method: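 Tumor cells were implanted, animals were treated, and survival was followed. The result divides the treated measurement by the vehicle-control measurement.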

[1] = endpoint: mean survival time, dose: 100.0 mg/kg/injection, schedule: Q01DX009 (ip), vehicle: saline with Tween-80
[2] = endpoint: mean survival time, dose: 100.0 mg/kg/injection, schedule: Q01DX001 (ip), vehicle: saline
[3] = endpoint: mean survival time, dose: 200.0 mg/kg/injection, schedule: Q01DX001 (ip), vehicle: saline
[4] = endpoint: mean survival time, dose: 400.0 mg/kg/injection, schedule: Q01DX001 (ip), vehicle: saline
[5] = endpoint: mean survival time, dose: 50.0 mg/kg/injection, schedule: Q01DX001 (ip), vehicle: saline
[6] = endpoint: mean survival time, dose: 100.0 mg/kg/injection, schedule: Q04DX003 (ip), vehicle: saline with Tween-80
[7] = endpoint: mean survival time, dose: 200.0 mg/kg/injection, schedule: Q04DX003 (ip), vehicle: saline with Tween-80
[8] = endpoint: mean survival time, dose: 400.0 mg/kg/injection, schedule: Q04DX003 (ip), vehicle: saline with Tween-80
[9] = endpoint: mean survival time, dose: 200.0 mg/kg/injection, schedule: Q01DX009 (ip), vehicle: saline with Tween-80

Measured: T/C

CCC[CH2][Sn]([C]#[C][Sn]([CH2]CCC)([CH2]CCC)[CH2]CCC)([CH2]CCC)[CH2]CCC
inactive: endpoint: mean survival time, dose: 0.39 mg/kg/injection, schedule: Q01DX009 (ip), vehicle: saline 94 % of control | endpoint: mean survival time, dose: 0.78 mg/kg/injection, schedule: Q01DX009 (ip), vehicle: saline 94 % of control | endpoint: mean survival time, dose: 1.56 mg/kg/injection, schedule: Q01DX009 (ip), vehicle: saline 97 % of control and 102 % of control | endpoint: mean survival time, dose: 6.25 mg/kg/injection, schedule: Q01DX009 (ip), vehicle: Klucel (hydroxypropylcellulose) (HPC) 88 % of control | endpoint: mean survival time, dose: 25.0 mg/kg/injection, schedule: Q04DX002 (ip), vehicle: saline 94 % of control

COC1=C(OC)C(=O)C(Sc2ccc3ccccc3c2)=CC1=O
inactive: endpoint: mean survival time, dose: 6.25 mg/kg/injection, schedule: Q01DX009 (ip), vehicle: saline with Tween-80 100 % of control | endpoint: mean survival time, dose: 12.5 mg/kg/injection, schedule: Q01DX009 (ip), vehicle: saline with Tween-80 94 % of control | endpoint: mean survival time, dose: 25.0 mg/kg/injection, schedule: Q01DX009 (ip), vehicle: saline with Tween-80 100 % of control | endpoint: mean survival time, dose: 50.0 mg/kg/injection, schedule: Q01DX009 (ip), vehicle: saline with Tween-80 96 % of control | [1] 94 % of control

COC(=O)/C=C(\C)CCC1OC1(C)C (configuration not stated)
inactive: [2] 105 % of control | endpoint: mean survival time, dose: 100.0 mg/kg/injection, schedule: Q04DX003 (ip), vehicle: acetone 95 % of control | [3] 100 % of control | endpoint: mean survival time, dose: 200.0 mg/kg/injection, schedule: Q04DX003 (ip), vehicle: acetone 108 % of control | [4] 94 % of control | endpoint: mean survival time, dose: 400.0 mg/kg/injection, schedule: Q04DX003 (ip), vehicle: acetone 103 % of control

CC1=CC(=O)C(=O)C=C1O
inactive: endpoint: mean survival time, dose: 50.0 mg/kg/injection, schedule: Q01DX001 (ip), vehicle: water 103 % of control | endpoint: mean survival time, dose: 100.0 mg/kg/injection, schedule: Q01DX001 (ip), vehicle: water 113 % of control | endpoint: mean survival time, dose: 200.0 mg/kg/injection, schedule: Q01DX001 (ip), vehicle: water 108 % of control | endpoint: mean survival time, dose: 400.0 mg/kg/injection, schedule: Q01DX001 (ip), vehicle: water 110 % of control

Cc1ccccc1CO
inactive: [5] 97 % of control | [2] 97 % of control | [3] 97 % of control | [4] 100 % of control

CN1CCCC1CCCl (configuration not stated)
inactive: endpoint: mean survival time, dose: 12.5 mg/kg/injection, schedule: Q01DX001 (ip), vehicle: saline 97 % of control | endpoint: mean survival time, dose: 12.5 mg/kg/injection, schedule: Q04DX003 (ip), vehicle: saline 88 % of control | endpoint: mean survival time, dose: 25.0 mg/kg/injection, schedule: Q01DX001 (ip), vehicle: saline 100 % of control | endpoint: mean survival time, dose: 25.0 mg/kg/injection, schedule: Q04DX003 (ip), vehicle: saline 95 % of control | [5] 100 % of control | endpoint: mean survival time, dose: 50.0 mg/kg/injection, schedule: Q04DX003 (ip), vehicle: saline 95 % of control | endpoint: mean survival time, dose: 75.0 mg/kg/injection, schedule: Q04DX003 (ip), vehicle: saline 100 % of control

Nc1cc2nc3ccccc3sc-2cc1=O
inactive: endpoint: median survival time, dose: 50.0 mg/kg/injection, schedule: Q01DX001 (ip), vehicle: Klucel (hydroxypropylcellulose) (HPC) 100 % of control | endpoint: median survival time, dose: 50.0 mg/kg/injection, schedule: Q01DX001 (oral), vehicle: Klucel (hydroxypropylcellulose) (HPC) 105 % of control | endpoint: median survival time, dose: 50.0 mg/kg/injection, schedule: Q01DX009 (ip), vehicle: Klucel (hydroxypropylcellulose) (HPC) 102 % of control | endpoint: median survival time, dose: 50.0 mg/kg/injection, schedule: Q01DX009 (oral), vehicle: Klucel (hydroxypropylcellulose) (HPC) 114 % of control | endpoint: median survival time, dose: 50.0 mg/kg/injection, schedule: Q04DX003 (ip), vehicle: Klucel (hydroxypropylcellulose) (HPC) 101 % of control | endpoint: median survival time, dose: 100.0 mg/kg/injection, schedule: Q01DX001 (ip), vehicle: Klucel (hydroxypropylcellulose) (HPC) 93 % of control | endpoint: median survival time, dose: 100.0 mg/kg/injection, schedule: Q01DX001 (oral), vehicle: Klucel (hydroxypropylcellulose) (HPC) 105 % of control | endpoint: median survival time, dose: 100.0 mg/kg/injection, schedule: Q01DX009 (ip), vehicle: Klucel (hydroxypropylcellulose) (HPC) 97 % of control | endpoint: median survival time, dose: 100.0 mg/kg/injection, schedule: Q01DX009 (oral), vehicle: Klucel (hydroxypropylcellulose) (HPC) 114 % of control | endpoint: median survival time, dose: 100.0 mg/kg/injection, schedule: Q04DX003 (ip), vehicle: Klucel (hydroxypropylcellulose) (HPC) 94 % of control | endpoint: median survival time, dose: 200.0 mg/kg/injection, schedule: Q01DX001 (ip), vehicle: Klucel (hydroxypropylcellulose) (HPC) 96 % of control | endpoint: median survival time, dose: 200.0 mg/kg/injection, schedule: Q01DX001 (oral), vehicle: Klucel (hydroxypropylcellulose) (HPC) 106 % of control | endpoint: median survival time, dose: 200.0 mg/kg/injection, schedule: Q01DX009 (ip), vehicle: Klucel (hydroxypropylcellulose) (HPC) 102 % of control | endpoint: median survival time, dose: 200.0 mg/kg/injection, schedule: Q01DX009 (oral), vehicle: Klucel (hydroxypropylcellulose) (HPC) 113 % of control | endpoint: median survival time, dose: 200.0 mg/kg/injection, schedule: Q04DX003 (ip), vehicle: Klucel (hydroxypropylcellulose) (HPC) 101 % of control | endpoint: median survival time, dose: 400.0 mg/kg/injection, schedule: Q01DX001 (ip), vehicle: Klucel (hydroxypropylcellulose) (HPC) 96 % of control | endpoint: median survival time, dose: 400.0 mg/kg/injection, schedule: Q01DX001 (oral), vehicle: Klucel (hydroxypropylcellulose) (HPC) 110 % of control | endpoint: median survival time, dose: 400.0 mg/kg/injection, schedule: Q01DX009 (ip), vehicle: Klucel (hydroxypropylcellulose) (HPC) 97 % of control | endpoint: median survival time, dose: 400.0 mg/kg/injection, schedule: Q01DX009 (oral), vehicle: Klucel (hydroxypropylcellulose) (HPC) 112 % of control | endpoint: median survival time, dose: 400.0 mg/kg/injection, schedule: Q04DX003 (ip), vehicle: Klucel (hydroxypropylcellulose) (HPC) 94 % of control

CCCCN(CCCC)S(=O)(=O)CCC
inactive: endpoint: mean survival time, dose: 50.0 mg/kg/injection, schedule: Q04DX002 (ip), vehicle: saline with Tween-80 101 % of control | endpoint: mean survival time, dose: 100.0 mg/kg/injection, schedule: Q04DX002 (ip), vehicle: saline with Tween-80 97 % of control | endpoint: mean survival time, dose: 200.0 mg/kg/injection, schedule: Q04DX002 (ip), vehicle: saline with Tween-80 97 % of control

O=S(=O)(Nc1ccccc1)c1ccccc1CC(O)(c1ccccc1)c1ccccc1
inactive: endpoint: mean survival time, dose: 100.0 mg/kg/injection, schedule: Q01DX001 (ip), vehicle: steriod suspending solution 95 % of control | endpoint: mean survival time, dose: 200.0 mg/kg/injection, schedule: Q01DX001 (ip), vehicle: steriod suspending solution 93 % of control | endpoint: mean survival time, dose: 400.0 mg/kg/injection, schedule: Q01DX001 (ip), vehicle: steriod suspending solution 87 % of control

O=S(c1ccc(O)cc1)c1ccc(O)cc1
inactive: [6] 99 % of control | [7] 94 % of control | [8] 101 % of control

COC1OC2COc3ccccc3OC2C(N=Cc2ccccc2)C1O (configuration not stated)
inactive: [6] 102 % of control | [7] 102 % of control | [8] 98 % of control

CCCCCC(/C=C/C1C=CC(=O)C1C/C=C/CCCC(=O)OC)OC(C)=O (configuration not stated)
inactive: [1] 100 % of control | [9] 97 % of control

CC(C)C1=CC2=CCC3C(C)(C#N)CCCC3(C)C2CC1CC#N (configuration not stated)
inactive: [6] 88 % of control | [8] 92 % of control

O=C(O)/C=C(/Cl)c1ccccc1
inactive: [6] 102 % of control | [7] 100 % of control | [8] 108 % of control

O=C1NC2/C=C/CCCCC12 (configuration not stated)
inactive: endpoint: mean survival time, dose: 100.0 mg/kg/injection, schedule: Q04DX003 (ip), vehicle: other 95 % of control | endpoint: mean survival time, dose: 200.0 mg/kg/injection, schedule: Q04DX003 (ip), vehicle: other 101 % of control | endpoint: mean survival time, dose: 400.0 mg/kg/injection, schedule: Q04DX003 (ip), vehicle: other 92 % of control

CC1(C)COC(C)(C)C(=O)O1
inactive: endpoint: mean survival time, dose: 100.0 mg/kg/injection, schedule: Q04DX003 (ip), vehicle: Klucel (hydroxypropylcellulose) (HPC) 106 % of control | endpoint: mean survival time, dose: 200.0 mg/kg/injection, schedule: Q04DX003 (ip), vehicle: Klucel (hydroxypropylcellulose) (HPC) 97 % of control

CC1CC2(C)C(CC1=O)CC(C)C1C2CCC2(C)C1CCC2(C)O (configuration not stated)
inactive: [1] 90 % of control | [9] 90 % of control
